Data published in patent US6921777B2, “Heteroethynylenic compounds and pharmaceutical and cosmetic compositions containing them” (Galderma Research & Development, S.N.C., priority 1998, dated 2005).

Target: T1, RXRalpha (Homo sapiens, UniProt P19793)
T1 construct: expressed in transfected cells; host or cells: Cos7 monkey kidney cells
T1 sequence (P19793 1-462): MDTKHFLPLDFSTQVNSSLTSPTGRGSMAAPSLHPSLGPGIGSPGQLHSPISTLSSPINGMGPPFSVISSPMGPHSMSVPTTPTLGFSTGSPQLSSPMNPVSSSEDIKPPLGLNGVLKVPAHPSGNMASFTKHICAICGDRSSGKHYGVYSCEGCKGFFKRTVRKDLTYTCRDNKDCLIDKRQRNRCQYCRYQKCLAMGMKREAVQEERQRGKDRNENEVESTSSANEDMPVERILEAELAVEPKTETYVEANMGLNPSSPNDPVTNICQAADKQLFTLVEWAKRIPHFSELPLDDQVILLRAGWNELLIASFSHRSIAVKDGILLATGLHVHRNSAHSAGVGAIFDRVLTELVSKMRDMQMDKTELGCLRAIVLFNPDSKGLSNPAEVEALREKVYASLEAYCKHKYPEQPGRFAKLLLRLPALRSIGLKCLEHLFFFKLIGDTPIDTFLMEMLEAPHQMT
Experiment: RXR antagonist transactivation test (cotransfection pSG5-RXRalpha / CRBPII-tk-Luc, luciferase)
Format: cell-based
Conditions: Cos7 cells; for inhibition at 1 µM: COS-7, test compound at 10^−6M final, 3 nM reference agonist, treatment 18 h, luciferase activity, read-out: % of inhibition of the induction obtained with the agonist alone; for IC50: in the presence of 3 nM agonist 6-[1-(3,5,5,8,8-pentamethyl-5,6,7,8-tetrahydro-2-naphthalenyl)cyclopropyl]nicotinic acid, 5 concentrations 10^−5 to 10^−9 M, read-out: IC50 (dose required to achieve 50% inhibition of the agonist activity)
From the text: a) Determination of the IC50 values of the antagonist compounds
The dose-response curve obtained makes it possible to determine the IC50 value which is specific to the compound.
b) Test of RXR Antagonist Transactivation
The properties of inhibition of the activation of the RXR response elements (RXRE) can be determined by recognized methods of the art.
The receptor expression plasmid pSG5-RXRalpha and the reporter plasmid CRBPII-tk-Luc are introduced into the Cos7 monkey kidney cell line by the method of coprecipitation with calcium phosphate described in Molecular Cloning: A laboratory manual (Sambrook et al. eds. Cold Spring Harbor Lab. Publ. 1989). […] The test compound is added at 10^−6M final. After treatment for 18 h, the cells are rinsed with PBS and lysed in 0.1M KPO4 (pH 7.8), 1.0% Triton X100, 1.0 mM DTT, 1 mM EDTA. The luciferase activity of the cell lysatesis measured as described by deWet et al. in Mol. Cell. Biol. 7:725 (1987).

| Compound | inhibition at 1 µM [%] | IC50 [nM] |
| --- | --- | --- |
| COCOc1cc([Se]C#CC(C)=CC(=O)O)cc2c1C(C)(C)CCC2(C)C [EXAMPLE 14, 5-(4-Methoxymethoxy-5,5,8,8-tetramethyl-5,6,7,8-tetrahydronaphthalen-2-ylselenyl)-3-methylpent-2-en-4-ynoic Acid] | 61 | 471 |
| CCCOc1cc2c(cc1[Se]C#CC(C)=CC(=O)O)C(C)(C)CCC2(C)C [EXAMPLE 10, 3-Methyl-5-(5,5,8,8-tetramethyl-3-propoxy-5,6,7,8-tetrahydronaphthalen-2-ylselenyl)pent-2-en-4-ynoic Acid] | 57 | 671 |
| CCCOc1cc([Se]C#CC(C)=CC(=O)O)cc2c1C(C)(C)CCC2(C)C [EXAMPLE 12, 3-Methyl-5-(5,5,8,8-tetramethyl-4-propoxy-5,6,7,8-tetrahydronaphthalen-2-ylselenyl)pent-2-en-4-ynoic Acid] | 92 | 71 |
